{
  "source": "patent US20130244963A1",
  "about": "(Portola Pharmaceuticals, Inc., priority 2010, published 2013)",
  "key": {"[1]": {"system": "collagen induced arthritis (CIA)", "test": "Rat Collagen Induced Arthritis (CIA) Model, hind paw inflammation score", "format": "in vivo", "set-up": "scale not given here", "source_text": "Holmdahl R, Lorentzen J C, Lu S, Olofsson P, Wester L, Holmberg J, et al. Arthritis in rats with non-immunogenic adjuvants as models for rheumatoid arthritis. […] On day 10, the rats were boosted with a second subcutaneous injection. Test article administration was initiated when at least one hind paw was inflamed (clinical arthritis score=1) and enrollment into a treatment group was designated as day 1 of the study for each individual animal (n=4 to 8/dose group). Progression of disease was evidenced by increased edema and erythema of one or both ankle joints, followed by the involvement of the metatarsal and interphalangeal joints. […] Hind paws were scored daily (inflammation score) for progression of disease and evaluated for histopathological changes in cartilage structure, cellularity, matrix glycoaminoglycans, and synovial inflammation at the end of the 16-day treatment course. […] In Tables below, mean scores are calculated for all animals in dosed group over the entire experimental time course."}, "[2]": {"test": "Lymphocyte counts in rats with bovine collagen antibody mediated inflammation", "format": "in vivo, rat", "settings": "rat, in vivo", "source_text": "In 7 control rats treated with vehicle, lymphocyte count was […]. In 4 rats treated with dexamethasone, count=2.32×10^3/μL, p=0.42. However 3 out of 4 of rats did suffer from lymphopenia."}, "[3]": {"system": "DHL4", "test": "Viability of DLBCL cell line DHL4 by luminescent ATP detection (Cell Titer Glo)", "format": "cell-based", "settings": "single agents; three days; ATP luminescence", "experimental": "The final concentration of solvent (DMSO) during experimental time course was 1%. The robotic system Biomek 2 was used for all pipetting steps. After three days at 37 degrees in a tissue culture incubator, viability of cells was determined by lysis and luminescent ATP detection. ATP detection was carried out by addition of 20 μL Cell Titer Glo (Promega) following the protocol provided by manufacturer.\nThe concentrations of the inhibitors required to obtain 50, 75 or 90 percent inhibition are plotted in an isobologram (Tallarida R J. Dose response relations in pharmacology, Chapman and Hall/CRC, 2000)."}, "[4]": {"biological_target": "cKit (Homo sapiens, UniProt P10721)", "sequence (P10721 26-976)": "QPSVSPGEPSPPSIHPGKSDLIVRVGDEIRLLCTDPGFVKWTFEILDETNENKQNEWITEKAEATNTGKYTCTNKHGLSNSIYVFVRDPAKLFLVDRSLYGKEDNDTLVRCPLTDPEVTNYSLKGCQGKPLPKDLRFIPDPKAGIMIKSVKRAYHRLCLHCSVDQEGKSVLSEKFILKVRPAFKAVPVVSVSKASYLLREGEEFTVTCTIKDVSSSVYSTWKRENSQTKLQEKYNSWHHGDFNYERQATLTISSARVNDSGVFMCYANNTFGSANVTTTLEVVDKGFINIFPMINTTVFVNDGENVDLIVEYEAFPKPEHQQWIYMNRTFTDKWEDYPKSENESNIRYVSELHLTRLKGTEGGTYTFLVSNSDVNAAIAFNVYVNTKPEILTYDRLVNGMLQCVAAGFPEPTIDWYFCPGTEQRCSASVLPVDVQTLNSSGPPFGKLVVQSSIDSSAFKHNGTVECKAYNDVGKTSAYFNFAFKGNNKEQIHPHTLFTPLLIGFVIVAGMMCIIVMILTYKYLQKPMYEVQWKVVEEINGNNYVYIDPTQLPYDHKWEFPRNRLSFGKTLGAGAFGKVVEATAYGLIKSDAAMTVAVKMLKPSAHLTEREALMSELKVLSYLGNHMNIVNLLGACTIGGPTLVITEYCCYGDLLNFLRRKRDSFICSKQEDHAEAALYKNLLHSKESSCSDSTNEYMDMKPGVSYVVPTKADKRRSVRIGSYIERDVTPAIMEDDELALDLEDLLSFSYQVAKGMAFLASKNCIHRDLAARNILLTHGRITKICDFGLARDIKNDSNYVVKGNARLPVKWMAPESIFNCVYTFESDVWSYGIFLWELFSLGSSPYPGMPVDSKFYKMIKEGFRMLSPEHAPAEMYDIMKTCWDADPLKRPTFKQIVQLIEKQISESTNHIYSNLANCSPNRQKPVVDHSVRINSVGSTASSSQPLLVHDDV", "settings": "cited from earlier work"}, "[5]": {"biological_target": "T1, Flt3 (Homo sapiens, UniProt P36888)", "T1 sequence (P36888 27-993)": "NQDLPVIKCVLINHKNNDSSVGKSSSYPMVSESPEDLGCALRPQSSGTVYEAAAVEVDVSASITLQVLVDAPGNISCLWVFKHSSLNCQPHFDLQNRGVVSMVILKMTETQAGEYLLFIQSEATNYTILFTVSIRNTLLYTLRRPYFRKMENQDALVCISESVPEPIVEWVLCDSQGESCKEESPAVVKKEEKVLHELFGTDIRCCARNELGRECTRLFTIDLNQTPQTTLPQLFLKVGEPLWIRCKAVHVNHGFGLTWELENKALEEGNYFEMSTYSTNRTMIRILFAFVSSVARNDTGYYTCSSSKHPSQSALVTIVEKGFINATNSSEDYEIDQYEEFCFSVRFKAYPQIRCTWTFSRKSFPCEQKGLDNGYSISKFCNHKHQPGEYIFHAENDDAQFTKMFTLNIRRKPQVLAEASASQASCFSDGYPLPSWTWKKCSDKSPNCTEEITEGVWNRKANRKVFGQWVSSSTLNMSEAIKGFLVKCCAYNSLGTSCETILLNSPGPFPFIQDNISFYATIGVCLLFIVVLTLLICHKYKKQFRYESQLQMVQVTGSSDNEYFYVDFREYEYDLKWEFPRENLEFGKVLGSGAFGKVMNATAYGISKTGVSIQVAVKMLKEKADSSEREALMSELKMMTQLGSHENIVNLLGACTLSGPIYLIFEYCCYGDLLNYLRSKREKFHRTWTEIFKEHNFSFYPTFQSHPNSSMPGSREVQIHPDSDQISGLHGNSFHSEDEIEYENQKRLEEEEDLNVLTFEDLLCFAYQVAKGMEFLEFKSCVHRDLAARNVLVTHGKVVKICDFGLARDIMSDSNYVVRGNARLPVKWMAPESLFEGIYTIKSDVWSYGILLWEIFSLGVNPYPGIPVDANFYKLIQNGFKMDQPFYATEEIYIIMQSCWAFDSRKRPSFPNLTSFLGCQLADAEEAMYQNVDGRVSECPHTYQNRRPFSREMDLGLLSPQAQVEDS", "settings": "cited from earlier work"}, "[6]": {"system": "JAK kinases", "settings": "cited from earlier work"}, "[7]": {"biological_target": "Src kinase (Homo sapiens, UniProt P12931)", "sequence (P12931 whole entry)": "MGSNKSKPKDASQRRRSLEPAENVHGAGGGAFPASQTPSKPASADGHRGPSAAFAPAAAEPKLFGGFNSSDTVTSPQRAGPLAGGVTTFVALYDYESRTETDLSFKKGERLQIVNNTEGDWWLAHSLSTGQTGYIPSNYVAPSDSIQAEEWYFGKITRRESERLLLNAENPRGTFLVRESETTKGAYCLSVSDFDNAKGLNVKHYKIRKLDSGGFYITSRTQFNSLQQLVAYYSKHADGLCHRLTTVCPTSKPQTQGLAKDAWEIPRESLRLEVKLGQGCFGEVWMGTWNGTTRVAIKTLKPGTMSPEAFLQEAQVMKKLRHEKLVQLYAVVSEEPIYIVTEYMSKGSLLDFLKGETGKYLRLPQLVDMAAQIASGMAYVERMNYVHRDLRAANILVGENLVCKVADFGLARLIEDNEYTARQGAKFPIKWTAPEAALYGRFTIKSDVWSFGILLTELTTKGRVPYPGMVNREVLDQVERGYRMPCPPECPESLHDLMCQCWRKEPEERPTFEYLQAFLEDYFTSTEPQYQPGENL", "settings": "cited from earlier work"}},
  "data": [
    {"smiles": "C[C@@H]1C[C@H]2[C@@H]3CCC4=CC(=O)C=C[C@]4(C)[C@@]3(F)[C@@H](O)C[C@]2(C)[C@@]1(O)C(=O)CO", "note": "[Dexamethasone, reference compound]", "values": [
      {"measurement": "Maximum Inflammation Score measurement", "setting": "[1]; Dexamethasone 1 mg/Kg", "result": 1.50},
      {"measurement": "Mean Inflammation Score", "setting": "[1]; Dexamethasone 1 mg/Kg", "result": 0.188},
      {"measurement": "Minimum Inflammation Score measurement", "setting": "[1]; Dexamethasone 1 mg/Kg", "result": 0.0},
      {"measurement": "rats suffering from lymphopenia", "setting": "[2]; Lewis, 16 day", "result": "3 out of 4"},
      {"measurement": "lymphocyte count (group)", "setting": "[2]", "result": 2320, "unit": "µL⁻¹"}
    ]},
    {"smiles": "COc1cccc2c1C(=O)c1c(O)c3c(c(O)c1C2=O)C[C@@](O)(C(=O)CO)C[C@@H]3O[C@H]1C[C@H](N)[C@H](O)[C@H](C)O1", "note": "[Doxorubicin, reference compound]", "values": [
      {"measurement": "inhibitory activity on viability of DHL4 cells (in words)", "setting": "[3]", "result": "dose responsive inhibitory activity"}
    ]},
    {"smiles": "COc1cc(Nc2ncc(F)c(Nc3ccc4c(n3)N(COP(=O)(O)O)C(=O)C(C)(C)O4)n2)cc(OC)c1OC", "note": "[Fostamatinib disodium]", "values": [
      {"measurement": "activity against cKit", "setting": "[4]", "result": "active"},
      {"measurement": "activity against Flt3", "setting": "[5]", "result": "active"},
      {"measurement": "activity against JAK kinases", "setting": "[6]", "result": "active"},
      {"measurement": "activity against Src kinase", "setting": "[7]", "result": "not against Src kinsase"}
    ]},
    {"smiles": "CN(Cc1cnc2nc(N)nc(N)c2n1)c1ccc(C(=O)N[C@@H](CCC(=O)O)C(=O)O)cc1", "note": "[Methotrexate, reference compound]", "values": [
      {"measurement": "Maximum Inflammation Score measurement", "setting": "[1]; Methotrexate 0.1 mg/kg", "result": 4.63},
      {"measurement": "Minimum Inflammation Score measurement", "setting": "[1]; Methotrexate 0.1 mg/kg", "result": 1.25},
      {"measurement": "Mean Inflammation Score", "setting": "[1]; Methotrexate 0.1 mg/kg, all animals over entire time course", "result": 3.65},
      {"measurement": "Maximum Inflammation Score measurement", "setting": "[1]; Methotrexate 0.3 mg/kg", "result": 5.00},
      {"measurement": "Minimum Inflammation Score measurement", "setting": "[1]; Methotrexate 0.3 mg/kg", "result": 1.00},
      {"measurement": "Mean Inflammation Score", "setting": "[1]; Methotrexate 0.3 mg/kg, all animals over entire time course", "result": 4.02},
      {"measurement": "Maximum Inflammation Score measurement", "setting": "[1]; Methotrexate 1.0 mg/kg", "result": 4.00},
      {"measurement": "Minimum Inflammation Score measurement", "setting": "[1]; Methotrexate 1.0 mg/kg", "result": 1.13},
      {"measurement": "Mean Inflammation Score", "setting": "[1]; Methotrexate 1.0 mg/kg, all animals over entire time course", "result": 2.90},
      {"measurement": "Maximum Inflammation Score measurement", "setting": "[1]; Methotrexate 2.0 mg/kg", "result": 2.50},
      {"measurement": "Minimum Inflammation Score measurement", "setting": "[1]; Methotrexate 2.0 mg/kg", "result": 1.00},
      {"measurement": "Mean Inflammation Score", "setting": "[1]; Methotrexate 2.0 mg/kg, all animals over entire time course", "result": 2.11}
    ]}
  ]
}
